Measurements published in PubChem BioAssay AID328 (DTP/NCI, 2004).
“And” between values parts separate entries of the source, which are not always exact repeats. Identical values can stand only once. Toxic doses and inconclusive results are not listed. The calls were made as follows: active = survival T/C of 150% or more; inactive = T/C below 125% in these data. Non-standard residues stand in square brackets, D forms with d. Residues, ends and D or L forms follow the SMILES beside them. ξ: configuration not given here. ξF = NC(Cc1ccccc1)C(=O)O

System: BDF1 mice, P388 leukemia ip, median survival T/C
Test: NCI In Vivo Anticancer Drug Screen. Data for tumor model P388 Leukemia (intraperitoneal) in B6D2F1 (BDF1) mice
Details: endpoint: median survival time, higher = longer survival
In short: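 Mice carrying the transplantable tumour receive compound or vehicle. Survival is followed in each arm, and the treated measure is divided by the vehicle measure.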

[1] = dose: 50.0 mg/kg/injection, schedule: Q01DX009 (ip), vehicle: saline with Tween-80
[2] = dose: 100.0 mg/kg/injection, schedule: Q01DX009 (ip), vehicle: saline with Tween-80
[3] = dose: 200.0 mg/kg/injection, schedule: Q01DX009 (ip), vehicle: saline with Tween-80
[4] = dose: 25.0 mg/kg/injection, schedule: Q01DX009 (ip), vehicle: saline
[5] = dose: 50.0 mg/kg/injection, schedule: Q01DX009 (ip), vehicle: saline
[6] = dose: 100.0 mg/kg/injection, schedule: Q04DX003 (ip), vehicle: saline with Tween-80
[7] = dose: 200.0 mg/kg/injection, schedule: Q04DX003 (ip), vehicle: saline with Tween-80
[8] = dose: 400.0 mg/kg/injection, schedule: Q04DX003 (ip), vehicle: saline with Tween-80
[9] = dose: 400.0 mg/kg/injection, schedule: Q01DX009 (ip), vehicle: saline with Tween-80

Measured: T/C

CC1=COC2CCCCC2O1 (stereo unspecified) (tested in a mixture with another compound)
inactive: dose: 100.0 mg/kg/injection, schedule: Q01DX009 (ip), vehicle: acetone 104 % of control | dose: 200.0 mg/kg/injection, schedule: Q01DX009 (ip), vehicle: acetone 96 % of control | dose: 400.0 mg/kg/injection, schedule: Q01DX009 (ip), vehicle: acetone 96 % of control

O=C1c2c(Cl)cccc2C(c2ccccc2)c2cccc(Cl)c21
inactive: [1] 95 % of control | [2] 104 % of control | [3] 97 % of control

CCN(CC)C(C)CN1c2ccccc2Sc2ccccc21 (stereo unspecified)
inactive: [4] 100 % of control | [5] 112 % of control | dose: 100.0 mg/kg/injection, schedule: Q01DX009 (ip), vehicle: saline 116 % of control

O=C(O)c1sc(C(=O)O)c(-c2ccccc2)c1-c1ccccc1
inactive: dose: 6.25 mg/kg/injection, schedule: Q01DX009 (ip), vehicle: saline 89 % of control and 101 % of control | dose: 12.5 mg/kg/injection, schedule: Q01DX009 (ip), vehicle: saline 101 % of control and 115 % of control | [4] 87 % of control and 95 % of control | [1] 100 % of control | [5] 89 % of control and 100 % of control | [2] 100 % of control | [6] 90 % of control | [3] 100 % of control | [7] 95 % of control | [8] 104 % of control

C=CC[n+]1ccccc1C(c1ccccc1)c1ccccc1
inactive: dose: 6.25 mg/kg/injection, schedule: Q01DX009 (ip), vehicle: saline with Tween-80 116 % of control | dose: 12.5 mg/kg/injection, schedule: Q01DX009 (ip), vehicle: saline with Tween-80 120 % of control | dose: 12.5 mg/kg/injection, schedule: Q04DX003 (ip), vehicle: saline with Tween-80 91 % of control

O=C(Cl)c1ccc(N2C(=O)c3ccccc3C2=O)cc1[N+](=O)[O-]
inactive: [1] 118 % of control | dose: 50.0 mg/kg/injection, schedule: Q04DX003 (ip), vehicle: saline with Tween-80 96 % of control | [2] 121 % of control | [6] 102 % of control | [3] 115 % of control | [7] 100 % of control | [9] 101 % of control | [8] 105 % of control

CN1c2ccc3ccccc3c2Sc2ccc3ccccc3c21
inactive: [2] 113 % of control | [6] 100 % of control | [3] 104 % of control | [7] 95 % of control | [9] 104 % of control | [8] 90 % of control

CCOP(=S)(OCC)OP(=S)(OCC)OCC
inactive: dose: 1.0 mg/kg/injection, schedule: Q04DX003 (ip), vehicle: other 111 % of control | dose: 2.0 mg/kg/injection, schedule: Q04DX003 (ip), vehicle: other 106 % of control | dose: 4.0 mg/kg/injection, schedule: Q04DX003 (ip), vehicle: other 106 % of control

CC(=O)N1CCCCCC1=O
inactive: [1] 104 % of control | [2] 89 % of control | [3] 104 % of control | [9] 90 % of control

NC(Cc1ccccc1)C(=O)NCC(=O)O (stereo unspecified) (H-[ξF]-Gly-OH)
inactive: dose: 100.0 mg/kg/injection, schedule: Q04DX003 (ip), vehicle: saline 100 % of control | dose: 200.0 mg/kg/injection, schedule: Q04DX003 (ip), vehicle: saline 100 % of control | dose: 400.0 mg/kg/injection, schedule: Q04DX003 (ip), vehicle: saline 100 % of control
